Among the data in patent US20260258050A1, “IMMUNOMODULATOR” (HITGEN INC., priority 2023, published 2026) are IC50 values, retold here.

Molecules are shown by their SMILES.

One assay concerns the target T1, Human IL-17AF (Homo sapiens, UniProt Q16552+Q96PD4).
T1 construct: purchased Sino Biological Inc. CT047-H08H
T1 sequence (Q16552 24-155): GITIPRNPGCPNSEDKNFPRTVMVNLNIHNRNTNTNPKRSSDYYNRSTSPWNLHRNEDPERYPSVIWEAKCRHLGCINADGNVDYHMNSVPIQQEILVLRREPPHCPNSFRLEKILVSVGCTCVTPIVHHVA
T1 sequence (Q96PD4 31-163): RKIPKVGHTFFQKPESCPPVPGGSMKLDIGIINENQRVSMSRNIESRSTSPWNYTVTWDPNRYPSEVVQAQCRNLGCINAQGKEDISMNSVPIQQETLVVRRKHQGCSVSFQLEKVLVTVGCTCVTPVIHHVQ
As to the kind of experiment: IL-17AF ELISA (competitive ELISA, IL-17AF/IL-17Ra receptor-ligand binding). The settings on record: human IL-17AF coated plate, human IL-17Ra, read-out: IC50, inhibitory activity of compounds on human IL-17AF. The procedure:
Experiment Example 2 IL-17AF ELISA
The inhibitory effects of human IL-17AF inhibitors on receptor-ligand binding were quantitatively determined by a competitive ELISA.
The ELISA was performed through the following steps.
Human IL-17AF (Sino Biological Inc., Cat #CT047-H08H) was diluted with coating buffer (50 mM PBS, pH 7.4) to reach a concentration of 0.625 μg/ml. 100 μL of the resulting solution was added to each well of a 96-well plate, and the plate was incubated at 37° C. for 30 min. In the blank group, 100 μL of coating buffer was added instead of the IL-17AF solution.
The plate was washed four times with 10 mM PBST (pH 7.4). 200 μL was used per well for each wash. After the final wash, the plate was tapped dry on absorbent paper.
Fresh 5% (w/v) skim milk solution was prepared before the experiment. For example, 5 grams of skim milk powder (Bio-Rad, Cat #170-6404) was completely dissolved in 100 mL of 10 mM PBST. 200 μL of the 5% (w/v) skim milk solution was added to each well, and the plate was incubated on a shaker at 25° C. for 30 min.
(S4) Preparation of 100× to-be-Tested Compound Solutions
During step (S3), the to-be-tested compound solutions were prepared. Each powdered compound was dissolved in dimethyl sulfoxide (DMSO) to reach a stock concentration of 10 mM. The to-be-tested compound solutions were then serially diluted four-fold with DMSO to obtain nine concentrations ranging from […].
(S6) Pre-Incubation of IL-17AF with to-be-Tested Compound Solutions
89 μL of PBST and 1 μL of each of the to-be-tested compound solutions were added to each well and mixed. The plate was pre-incubated at 25° C. for 10 min. In the blank group and the control group, 1 μL of DMSO was added instead of the to-be-tested compound solutions.
(S7) Incubation with Human IL-17Ra
10 μL of 100 nM IL-17Ra (Sino Biological Inc., Cat #10895-H03H) was added to each well, followed by incubation on a shaker at 25° C. for 30 min. The receptor solution was prepared in 10 mM PBST.
(S9) Incubation with Horseradish Peroxidase-Conjugated Antibody
100 μL of mouse anti-Fc tag HRP-conjugated antibody (Sino Biological Inc., Cat #10702-MM01T-H) was added to each well. The plate was incubated on a shaker at 25° C. for 30 min. The antibody was diluted with 5% (w/v) skim milk solution at 1:5,000 (v/v).
100 μL of TMB substrate solution (BD, Cat #555214) was added to each well. Substrate A and substrate B were freshly mixed at a volume ratio of 1:1 before use. The plate was incubated in the dark at 25° C. for 5-15 min.
(S12) Termination and Detection
The color reaction was terminated by addition of 2.5 M HCl. Absorbance was measured at 450 nm using a BMG PHERStar microplate reader.
(S13) Calculation of Half-Maximal Inhibitory Concentration (IC50)
The relative percent residual activity at each compound concentration was calculated according to Equation 1. The IC50 value of each test compound was then calculated in GraphPad 6 using the equation for log(inhibitor) versus normalized response with variable slope, as shown in Equation 2.
relative percent residual activity (%)=[(absorbance of sample−absorbance of blank group)/(absorbance of control group−absorbance of blank group)]%. Equation 1: […]
The compounds prepared in the Examples were tested for IL-17AF inhibitory activity according to the above method.

Assay [1] concerns the target T2, Human IL-17A (Homo sapiens, UniProt Q16552).
T2 sequence (Q16552 20-155 limits assumed): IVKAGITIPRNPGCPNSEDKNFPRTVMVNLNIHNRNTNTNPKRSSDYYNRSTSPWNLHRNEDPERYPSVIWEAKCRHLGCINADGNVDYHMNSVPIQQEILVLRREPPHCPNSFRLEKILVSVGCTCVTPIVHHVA
Kind of assay: Inhibition of human IL-17A protein-induced GROα/CXCL1 production in HT-29 cells. The note with it: 30 ng/mL human IL-17A protein, 48 h, GROα in supernatant by ELISA kit, read-out: Inhibitory IC50 of compounds on HT-29 cell GROα/CXCL1. The assay is classed as cell-based. Details: purchased R&D 317-ILB; host or cells: added exogenously to HT-29 cells. Here is the method: Experiment Example 3 Inhibition of Human IL-17A Protein-Induced GROα/CXCL1 Production in HT-29 Cells by Compounds
This assay was conducted to evaluate the ability of the compounds to inhibit human IL-17A protein-induced production of the chemokine growth-regulated oncogene alpha/C-X-C motif chemokine ligand 1 (GROα/CXCL1) in HT-29 cells.
Human colorectal adenocarcinoma epithelial HT-29 cells (Chengdu Zhongyuan Gongchuang Technology Co., Ltd.) were seeded into a 96-well plate at a density of 5×10^4 cells per well and were cultured overnight in an incubator at 37° C.
30 ng/mL of human IL-17A protein (R&D, #317-ILB) was mixed with gradient concentrations of the IL-17A small-molecule inhibitor, or with […] of a positive control IL-17A antibody (R&D, #AF-317-NA). These mixtures were incubated at 37° C. for 1 h and were then added to the plate. The mixtures were co-incubated with the HT-29 cells at 37° C. for 48 h. Thereafter, the level of GROα in the cell culture supernatant was determined using a GROα ELISA kit (Cisbio, #62HCXC1PEG).
The inhibitory activity of each compound was expressed as the half-maximal inhibitory concentration (IC50) for inhibition of GROα/CXCL1 production in HT-29 cells.

In assay [2] the target is T2, Human IL-17A. Kind of assay: IL-17A enzyme-linked immunosorbent assay (competitive ELISA, IL-17A/IL-17Ra receptor-ligand binding). Details: purchased Sino Biological Inc. 12047-H07B. The note with it: human IL-17A coated plate, human IL-17Ra, read-out: IC50, inhibitory activity of compounds on human IL-17A. An outline of the steps:
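Competitive ELISA with plates coated with human IL-17A at 0.2 μg/ml, blocked with 5% skim milk. Compound pre-incubated with IL-17A 10 min at 25 °C, then 16 nM IL-17Ra stock added for 30 min. Bound receptor detected by anti-Fc HRP/TMB, A450. IC50 from variable-slope fit of blank-corrected residual activity.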

Regarding `COCCN1Cc2cc(NC(=O)[C@@H](NC(=O)c3ccnn3C(C)C)C(C3CC3)C3CC3)c(F)cc2-c2c(n[nH]c2C)CC1=O` [compound 137], the IC50 at Human IL-17AF is ≤ 0.1 µM; at Human IL-17A [1], 0.1 to 0.5 µM.
The matching figures for `CCn1nccc1C(=O)N[C@H](C(=O)Nc1cc2c(cc1F)-c1c(n[nH]c1C)CC(=O)N(CCOC)C2)C(C1CC1)C1CC1` [compound 138]: ≤ 0.1 µM and 0.1 to 0.5 µM.
`Cc1[nH]nc2c1-c1cc(F)c(NC(=O)[C@@H](NC(=O)c3ccnn3C(C)C)C(C3CC3)C3CC3)cc1CN(C)CC2` [compound 154]: the results for the IC50 at Human IL-17AF and on Human IL-17A [2] were 0.1 to 0.5 µM and ≤ 0.05 µM, respectively.
In the same order, the values of `Cc1[nH]nc2c1-c1cc(F)c(NC(=O)[C@@H](NC(=O)c3conc3C3CC3)C(C3CC3)C3CC3)cc1COCC2` [compound 34] are ≤ 0.1 µM and ≤ 0.05 µM.
The matching figures for `Cc1[nH]nc2c1-c1ccc(NC(=O)[C@@H](NC(=O)c3ccnn3C(C)C)C(C3CC3)C3CC3)cc1CN(C)CC2` [compound 24]: 0.1 to 0.5 µM and 0.05 to 0.15 µM.
`Cc1[nH]nc2c1-c1cc(F)c(NC(=O)[C@@H](NC(=O)c3ccnn3C3CC3)C(C3CC3)C3CC3)cc1COCC2` [compound 19]: the values for the IC50 on Human IL-17AF and on Human IL-17A [2] were 0.1 to 0.5 µM and ≤ 0.05 µM, respectively.
As for `Cc1[nH]nc2c1-c1cc(F)c(NC(=O)[C@@H](NC(=O)c3ccnn3CC(F)(F)F)C(C3CC3)C3CC3)cc1COCC2` [compound 94], the figures for the IC50 at Human IL-17AF and at Human IL-17A [2] were 0.1 to 0.5 µM and ≤ 0.05 µM, respectively.
In the same order, the values of `CCn1nccc1C(=O)N[C@H](C(=O)Nc1ccc2c(c1)CN(C)CCc1n[nH]c(C)c1-2)C(C1CC1)C1CC1` [compound 25] are 0.1 to 0.5 µM and 0.05 to 0.15 µM.
